For 35 compounds, IC50 results are on record in US9206198B2, “Inhibitors of the renal outer medullary potassium channel” (Merck Sharp & Dohme Corp., priority 2012, dated 2015).

One may read the IC50 as the point on the concentration scale where inhibition reaches its midpoint.

This assay has as its target hROMK (hKir1.1) (Homo sapiens (Human), UniProt P48048). Description: Thallium Flux Assay (ROMK channel functional thallium flux assay, FLIPR-Tetra). The conditions noted are these: HEK293 cells stably expressing hROMK. The class given is cell-based. Here is the method:
Cell Culture Conditions— HEK293 cells stably expressing hROMK (hKir1.1) were grown at 37° C. in a 10% CO2 humidified incubator in complete growth media: Dulbecco's Modified Eagle Medium supplemented with non-essential amino acids, Penicillin/Streptomycin/Glutamine, G418 and FBS. At >80% confluency, aspirate the media from the flask and rinse with 10 mL Calcium/Magnesium-free PBS. Add 5 mL of 1× trypsin (prepared in Ca/Mg Free PBS) to T-225 flask and return flask to 37° C./CO2 incubator for 2-3 minutes. To dislodge the cell, gently bang the side of the flask with your hand. Triturate the cells completely and then transfer the cells to 25 mL complete media. Centrifuge at 1,500 rpm for 6 min followed by resuspension in complete growth media and determine cell concentration. For typical re-seeding, 4E6 cells/T-225 flask will attain >80% confluency in 4 days. Under ideal growth conditions and appropriate tissue culture practices, this cell line is stable for 40-45 passages.
FluxOR Kit Components (Invitrogen F10017)
• FluxOR™ Reagent (Component A) • FluxOR™ Assay Buffer (Component B)—10× Concentrate • PowerLoad™ Concentrate (Component C)—100× Concentrate • Probenecid (Component D)—Lyophilized sample is kept at −20° C. Water soluble, 100×after solubilization in 1 mL water. Store at 4° C. • FluxOR™ Chloride-free Buffer (Component E)—5× Concentrate • Potassium sulfate (K2SO4) Concentrate (Component F)—125 mM in water. Store at 4° C. • Thallium sulfate (Tl2SO4) Concentrate (Component G)—50 mM in water. Store at 4° C. • DMSO (dimethyl sulfoxide, Component H)—1 mL (100%) Reagent Preparation: FluxOR Working Solutions • 1000× FluxOR™ Reagent: Reconstitute a vial of component A in 100 μl DMSO; Mix well; Store 10 μl aliquots at −20° C. • 1× FluxOR™ Assay Buffer: Dilute Component B 10-fold with water; Adjust pH to 7.4 with Hepes/NaOH; Filter and store at 4° C. • Probenecid/Assay Buffer: 100 mL of 1× FluxOR™ Assay Buffer; 1 mL of reconstituted component D; Store at 4° C. • Loading Buffer (per microplate): 10 μl 1000× FluxOR™ Reagent; 100 μl component C; 10 mL Probenecid/Assay Buffer • Compound Buffer (per microplate): 20 mL Probenecid/Assay Buffer; 0.3 mM ouabain (10 mM ouabain in water can be stored in amber bottle/aluminum foil at room temperature); Test compound • 1× FluxOR™ Chloride-Free Buffer: Prepare 1× working solution in water. Can be stored at room temperature • Stimulant Buffer (prepared at 5× final concentration in 1× FluxOR™ Chloride-Free Buffer): 7.5 mM Thallium sulfate and 0.75 mM Potassium sulfate (to give a final assay concentration of 3 mM Thallium 0.3 mM Potassium). Store at 4° C. when not in use. If kept sterile, this solution is good for months.
Assay Protocol—The ROMK channel functional thallium flux assay is performed in 384 wells, using the FLIPR-Tetra instrument. HEK-hKir1.1 cells are seeded in Poly-D-Lysine microplates and kept in a 37° C.-10% CO2 incubator overnight. On the day of the experiment, the growth media is replaced with the FluxOR™ reagent loading buffer and incubated, protected from light, at ambient temperature (23-25° C.) for 90 min. The loading buffer is replaced with assay buffer±test compound followed by 30 min incubation at ambient temperature, where the Thallium/Potassium stimulant is added to the microplate.
• 1. Seed HEK-hKir1.1 cells ([…] at 20,000 cells/well) in 384-well PDL coated Microplates • 2. Allow cells to adhere overnight in humidified 37° C./10% CO2 incubator • 3. Completely remove cell growth media from microplate and replace with 25 μl loading buffer • 4. Incubate Microplate at room temperature, protected form light, for 90 min • 5. Remove loading buffer and replace with 25 μl 1× Assay Buffer±test compound. • 6. Incubate microplate at room temperature, protected from light, for 30 min • 7. At FLIPR-Tetra 384: Add stimulant (Thallium/Potassium) solution to microplate and monitor fluorescence. Excitation=400 nm, Emission=460 & 580 nm. Collect data for 10 min.

hROMK (hKir1.1), sequence (P48048 whole entry): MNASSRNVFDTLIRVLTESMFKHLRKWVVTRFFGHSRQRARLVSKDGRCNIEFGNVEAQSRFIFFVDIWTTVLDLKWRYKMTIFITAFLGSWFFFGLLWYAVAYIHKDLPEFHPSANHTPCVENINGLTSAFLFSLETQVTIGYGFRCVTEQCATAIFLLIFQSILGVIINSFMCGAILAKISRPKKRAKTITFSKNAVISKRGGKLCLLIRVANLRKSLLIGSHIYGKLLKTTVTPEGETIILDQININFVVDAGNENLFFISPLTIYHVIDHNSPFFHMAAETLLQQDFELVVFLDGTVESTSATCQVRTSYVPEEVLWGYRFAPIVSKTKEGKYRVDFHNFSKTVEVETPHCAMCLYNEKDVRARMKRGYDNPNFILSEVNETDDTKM

In turn, `CC1=C(N2CCC3(CCN(C[C@H](F)c4ccc5c(c4C)COC5=O)CC3)C2=O)COC1=O` [Example 47, 8-[(2R)-2-fluoro-2-(4-methyl-1-oxo-1,3-dihydro-2-benzofuran-5-yl)ethyl]-2-(4-methyl-5-oxo-2,5-dihydrofuran-3-yl)-2,8-diazaspiro[4.5]decan-1-one] came in with a 50% inhibitory concentration (IC50) of 40 nM.

Consider `CC1=C(N2CCC3(CC4CN(C)CC(C3)N4C[C@H](O)c3ccc4c(c3C)COC4=O)C2=O)COC1=O` (some centres unmarked) [Example 45], for which the 50% inhibitory concentration (IC50) is 160 nM. This IC50 is about 4-fold higher than that of the compound before.

As to `CO[C@@H](CN1CCC2(CC1)C[C@H](C)N(C1=CC(=O)OC1)C2=O)c1ccc2c(c1C)COC2=O` [Example 2], the IC50 is 50 nM.

As for `CC1=C(N2CCC3(CCN(C[C@H](O)c4ccc5c(c4C)COC5=O)CC3F)C2=O)COC1=O` (single isomer, unassigned) [Example 28], the IC50 came to 190 nM.

With `CC1=C(N2CCC3(CCN(CC(O)c4ccc5c(c4C4CC4)COC5=O)CC3)C2=O)COC1=O` (single isomer, unassigned) [Example 77], the IC50 is 240 nM.

`CC1=C(N2CCC3(CCN(C[C@@H](F)c4ccc5c(c4C)COC5=O)CC3)C2=O)COC1=O` [Example 48, 8-[(2S)-2-fluoro-2-(4-methyl-1-oxo-1,3-dihydro-2-benzofuran-5-yl)ethyl]-2-(4-methyl-5-oxo-2,5-dihydrofuran-3-yl)-2,8-diazaspiro[4.5]decan-1-one] registered an IC50 of 20 nM.

`CNC(CN1CCC2(CC1)CCN(C1=C(C)C(=O)OC1)C2=O)c1ccc2c(c1C)COC2=O` (centres unmarked) [Example 60, 8-[2-(methylamino)-2-(4-methyl-1-oxo-1,3-dihydro-2-benzofuran-5-yl)ethyl]-2-(4-methyl-5-oxo-2,5-dihydrofuran-3-yl)-2,8-diazaspiro[4.5]decan-1-one] showed an IC50 of 100 nM.

`COCC1=C(N2CCC3(CCN(C[C@H](O)c4ccc5c(c4C)COC5=O)CC3)C2=O)COC1=O` [Example 71] yielded an IC50 of 70 nM. The IC50 values of the last two compounds are within 1.5-fold of each other.

Regarding `Cc1c([C@@H](O)CN2CCC3(CC2)CC(C)N(C2=CC(=O)OC2)C3=O)ccc2c1COC2=O` (stereo partly drawn) [Example 6, 8-((R)-2-Hydroxy-2-(4-methyl-1-oxo-1,3-dihydroisobenzofuran-5-yl)ethyl)-3-methyl-2-(5-oxo-2,5-dihydrofuran-3-yl)-2,8-diazaspiro[4.5]decan-1-one], the IC50 was 30 nM. This IC50 is about 2.3-fold lower than that of the compound before.

Turning to `CC1=C(N2CCC3(CCN(C[C@H](O)c4ccc5c(c4C)COC5=O)CC3O)C2=O)COC1=O` (some centres unmarked) [Example 26], the IC50 turned out to be 230 nM.

`CC1=C(N2CCC3(CCN(CC(NCCC#N)c4ccc5c(c4C)COC5=O)CC3)C2=O)COC1=O` (centres unmarked) [Example 59] displayed an IC50 of 210 nM. The IC50 values of the last two compounds are within 1.5-fold of each other.

`CC1=C(N2CCC3(CCN(CCc4ccc5c(c4C)COC5=O)CC3)C2=O)COC1=O` [Example 1, 8-(2-(4-methyl-1-oxo-1,3-dihydroisobenzofuran-5-yl)ethyl)-2-(4-methyl-5-oxo-2,5-dihydrofuran-3-yl)-2,8-diazaspiro[4.5]decan-1-one] returned an IC50 of 10 nM.

`CC1=C(N2CCC3(CCN(C[C@@H](O)c4ccc5c(c4C)COC5=O)CC3)C2=O)COC1=O` [Example 8, 8-[(2S)-2-hydroxy-2-(4-methyl-1-oxo-1,3-dihydro-2-benzofuran-5-yl)ethyl]-2-(4-methyl-5-oxo-2,5-dihydrofuran-3-yl)-2,8-diazaspiro[4.5]decan-1-one]: 30 nM corresponded to half-maximal inhibition (IC50).

Take `Cc1c([C@@H](O)CN2CCC3(C=CN(C4=CC(=O)OC4)C3=O)CC2)ccc2c1COC2=O` [Example 44]: half-maximal inhibition (IC50) was put at 40 nM.

As to `CC1=C(N2CCC3(CCN([C@@H](C)[C@H](O)c4ccc5c(c4C)COC5=O)CC3)C2=O)COC1=O` [Example 53A], the IC50 turned out to be 10 nM.

Regarding `CCc1c(C(O)CN2CCC3(CC2)CCN(C2=C(C)C(=O)OC2)C3=O)ccc2c1COC2=O` (single isomer, unassigned) [Example 74], the IC50 was determined as 200 nM. This IC50 is about 20-fold higher than that of the compound before.

Take `COCCNC(CN1CCC2(CC1)CCN(C1=C(C)C(=O)OC1)C2=O)c1ccc2c(c1C)COC2=O` (centres unmarked) [Example 58]: the IC50 was determined as 220 nM.

Take `CC1=C(N2CCC3(CCN(CC(NC4CC4)c4ccc5c(c4C)COC5=O)CC3)C2=O)COC1=O` (centres unmarked) [Example 54, 8-(2-(cyclopropylamino)-2-(4-methyl-1-oxo-1,3-dihydroisobenzofuran-5-yl)ethyl)-2-(4-methyl-5-oxo-2,5-dihydrofuran-3-yl)-2,8-diazaspiro[4.5]decan-1-one]: inhibition was half-maximal at 150 nM (IC50).

Take `CC1=C(N2CCC3(CC4CN(C)CC(C3)N4C[C@@H](O)c3ccc4c(c3C)COC4=O)C2=O)COC1=O` (some centres unmarked) [Example 46]: the IC50 was 140 nM.

Compound `CC1=C(N2CCC3(CCN(C[C@H](O)c4ccc5c(c4C)COC5=O)CC3F)C2=O)COC1=O` (single isomer, unassigned) [Example 27] gave a 50% inhibitory concentration (IC50) of 210 nM.

`Cc1c([C@@H](O)CN2CCC3(CC2)C(=O)N(C2=CC(=O)OC2)c2ccccc23)ccc2c1COC2=O` [Example 65, 1′-[(2R)-2-hydroxy-2-(4-methyl-1-oxo-1,3-dihydro-2-benzofuran-5-yl)ethyl]-2-oxo-1-(5-oxo-2,5-dihydrofuran-3-yl)-1,2-dihydrospiro[indole-3,4′-piperidinium]] gave an IC50 of 40 nM.

Consider `CC1=C(N2CC(=O)C3(CCN(C[C@H](O)c4ccc5c(c4C)COC5=O)CC3)C2=O)COC1=O` [Example 36], for which the IC50 came out at 30 nM.

`CC1=C(N2CCC3(CCN(C[C@@H](O)c4cc5c(cc4C)C(=O)OC5)CC3)C2=O)COC1=O` [Example 37] registered an IC50 of 30 nM.

Compound `CC1=C(N2C(=O)C3(CCN(C[C@H](O)c4ccc5c(c4C)COC5=O)CC3)CC2C2CC2)COC1=O` (some centres unmarked) [Example 70] yielded an IC50 of 340 nM.

In turn, `CC1=C(N2CCC3(CCN(CC(NC4CCC4)c4ccc5c(c4C)COC5=O)CC3)C2=O)COC1=O` (centres unmarked) [Example 56] displayed a half-maximal inhibitory concentration (IC50) of 370 nM.

Consider `CC1=C(N2CCC3(CC4COCC(C3)N4C[C@H](O)c3ccc4c(c3C)COC4=O)C2=O)COC1=O` (some centres unmarked) [Example 82], for which the midpoint of inhibition, the IC50, lay at 180 nM. This IC50 is about 2.1-fold lower than that of the compound before.

As for `CC1=CN(C2=C(C)C(=O)OC2)C(=O)C12CCN(C[C@H](O)c1ccc3c(c1C)COC3=O)CC2` [Example 73], the IC50 worked out at 80 nM. Compared with the last compound, the IC50 is about 2.2-fold lower.

`Cc1c([C@H](O)CN2C3CCC2CC2(CC(C)N(C4=CC(=O)OC4)C2=O)C3)ccc2c1COC2=O` (single isomer, unassigned) [Example 42] came in with an IC50 of 100 nM. The IC50 values of the last two compounds are within 1.5-fold of each other.

On to `CC1=CC2(CCN(C[C@H](O)c3ccc4c(c3C)COC4=O)CC2)C(=O)N1C1=CC(=O)OC1` [Example 72], for which half-maximal inhibition (IC50) required 30 nM.

In turn, `Cc1c([C@@H](O)CN2CCC3(CC2)C[C@@H](C)N(C2=CC(=O)OC2)C3=O)ccc2c1COC2=O` [Example 6A] returned an IC50 of 20 nM.

In turn, `CC1=C(N2CCC3(CCN(C(C)(C)C(O)c4ccc5c(c4C)COC5=O)CC3)C2=O)COC1=O` (single isomer, unassigned) [Example 85A] showed an IC50 of 120 nM.

`Cc1c([C@@H](O)CN2CCC3(CC2)CCN(C2=C(C4CC4)C(=O)OC2)C3=O)ccc2c1COC2=O` [Example 31] gave an IC50 of 40 nM.

`CC1=C(N2CCC3(CCN(CC(NCC(F)F)c4ccc5c(c4C)COC5=O)CC3)C2=O)COC1=O` (centres unmarked) [Example 55] displayed an IC50 of 250 nM.

With `Cc1c([C@@H](O)CN2C3CCC2CC2(CC(C)N(C4=CC(=O)OC4)C2=O)C3)ccc2c1COC2=O` (some centres unmarked) [Example 39], the IC50 stood at 20 nM. Compared with the last compound, the IC50 is about 12-fold lower.

As for `CC1=C(N2CCC3(CCN(C(CO)Cc4ccc5c(c4C)COC5=O)CC3)C2=O)COC1` (single isomer, unassigned) [Example 84A], the half-maximal inhibitory concentration (IC50) worked out at 60 nM.
